The source of these data is patent publication US9994852B2, “Oligonucleotide compositions and uses thereof” (MIRAGEN THERAPEUTICS, INC., priority 2015, dated 2018).

Holding throughout (assay type): cell-based, human
Data set [1] has as its system HuT102 cells. Nature of the data set: Apoptosis by caspase 3/7 activity in HuT102 cells. The settings on record: for apoptosis (caspase 3/7 activity normalized to ATP): over time. As to the method:
(§1) Since the level of ATP correlates directly with cell number, ATP was measured to determine the cell number. […] The reduction in cell number was accompanied by an increase in apoptosis as measured by caspase 3/7 activity (FIG. 14B). The caspase 3 and 7 proteins are members of the cysteine aspartic acid-specific protease (caspase) family. The caspase family plays key effector roles in apoptosis in mammalian cells. Caspase activity was normalized to ATP levels, as all cells have a low level of basal caspase activity that can confound the results if not normalized appropriately.
(§2) In addition to a time course, a dose titration of antimiR-155 compounds in HuT102 cells was performed with ATP and caspase 3/7 measurements performed after eight days of treatment (FIGS. 15A and 15B, respectively).

The test system of data set [2] is miR-155-5p. Nature of the data set: Real time PCR of miR-155 direct target genes in CTCL cell lines treated with antimiR-155 (passive uptake). The settings on record: for target de-repression: HuT102 and MyLa cell lines; for gene expression signature of four direct targets of miR-155-5p vs untreated cells: MJ and HuT102 cells, 72 hours; for gene expression signature of four direct targets of miR-155-5p vs untreated cells / antimiR activity by four-gene signature (Bach1, Jarid2, Picalm, Ship1): 10 μM; for antimiR activity by four-gene signature (Bach1, Jarid2, Picalm, Ship1): cumulative data across 2 μM, 50 μM and three mycosis fungoides cell lines. As to the method: CTCL cell lines were cultured in complete growth medium with the addition of antimiR-155 compound 1 (SEQ ID NO: 27), compound 2 (SEQ ID NO: 22), compound 3 (SEQ ID NO: 23), and compound 4 (SEQ ID NO: 25) at concentrations ranging from 2 μM to 50 μM. The antimiRs were added to the medium without any additional components to enhance cellular uptake. Cells were harvested after 72 hours of treatment and total RNA was purified. Real time PCR was performed for 13 direct gene targets of miR-155 (Worm et al. 2009; O'Connell et al. 2010; Zhang et al. 2012; and miRagen unpublished data). The relative fold-change in the expression of the 13 genes in the antimiR-treated cells compared to the untreated cells was calculated. […] Four predicted direct targets that lacked expression in at least one cell line were omitted. The gene expression fold-changes were log 10-transformed, plotted on a grayscale, representing the highest relative increase in gene expression, and conversely, the greatest reduction in gene expression.
Four direct gene targets of miR-155-5p (Bach1, Jarid2, Picalm, and Ship1) were chosen for additional analysis, as these four genes were modulated by antimiR-155 in all three mycosis fungoides cell lines (MJ, HuT102, and My-La). These genes were chosen to represent the gene expression signature for antimiR activity in vitro. Additionally, the four-gene signature was used to compare the activity of the antimiR compounds. These gene changes were reproducible over three independent experiments with cells of varying passage numbers. FIGS. 3, 4, 5, 6, and 7 show the fold-change results of this four-gene signature in the HuT102, MJ, HH, My-La, and Hut78 cell lines, respectively. * p-value<0.0001 vs untreated by nonparametric Mann-Whitney test. The Mann-Whitney test was chosen because the variances are unequal between the treatments compared to untreated cells.
The control oligonucleotide was a 14-nucleotide antimiR targeting a C. elegans miRNA not expressed in mammals (control 1). The second oligo is a scramble of the 14-nucleotide sequence of antimiR-155 compound 4 (control 2). The MJ and HuT102 cell lines were incubated with 10 μM antimiR-155 compounds 3 (SEQ ID NO: 23) or 4 (SEQ ID NO: 25) or the two control oligos for 72 hours.
On the technique in general: Real-time PCR tracks product formation cycle by cycle.

Data set [3] deals with HuT102 cells. Nature of the data set: AntimiR-155 combined with HDAC inhibitor SAHA: caspase 3/7 activity in HuT102 cells. The settings on record: 10 μM compound combined with 0.25 or 0.5 μM SAHA. The procedure:
Vorinostat (chemical name: SAHA) is a standard-of-care epigenetic therapy for patients with advanced mycosis fungoides. However, the side-effects of pan-HDAC inhibitors are well-described. To determine whether a combination therapy might show enhanced activity compared to treatment with individual compounds, HuT102 cells were treated with a sub-efficacious dose of SAHA combined with antimiR-155.
HuT102 cells were treated with 0.25 μM SAHA and 10 μM compound 3 (SEQ ID NO: 23) or 4 (SEQ ID NO: 25), individually or in combination. Cells were harvested daily to measure ATP levels and caspase 3/7 activity. A similar experiment was performed with 0.50 μM SAHA.
FIGS. 20A and 20B show the effect on caspase 3/7 activity.

Data set [4] relates to My-La cells. Nature of the data set: Caspase 3/7 activity in My-La cells. The settings on record: over time. The procedure:
(§3) FIGS. 17A and 17B show proliferation and activation of caspase 3/7 over time with compounds 3 (SEQ ID NO: 23) and 4 (SEQ ID NO: 25).
(§4) In addition to a time course, a dose titration of antimiR-155 compounds in My-La cells was performed with ATP and caspase 3/7 measurements after eight days of treatment (FIGS. 18A and 18B, respectively).

Data set [5] deals with My-La cells. Nature of the data set: Proliferation of My-La cells (ATP). The procedure: as §3, §4
Data set [6] relates to miR-155-5p. Nature of the data set: Whole genome expression profiling of CTCL cell lines treated with antimiR-155. The procedure: To gain a more complete understanding of the molecular consequences of miR-155 inhibition in mycosis fungoides cell lines, whole genome transcriptome profiling was performed on MJ and HuT102 cell lines treated with antimiR-155 compounds 3 (SEQ ID NO: 23) or 4 (SEQ ID NO: 25) for 4 days (96 hours) or 8 days. The statistically-significant gene expression signature was defined by one-way ANOVA for antimiR-treated cells compared to untreated cells at the same time point. […] The fold-change results are shown in FIGS. 9 and 10 as heat maps, as described for FIG. 2.
The gene expression profile common to both cell lines and both compounds at Day 4 was analyzed for the enrichment of miR-155-5p seed-matched gene targets (8-, 7-, and 6-nucleotide binding sites). The fold-change of these genes is represented in a heat map in FIG. 11. […] The gene signature was also analyzed using the DAVID bioinformatic resource for functional gene annotation enrichment (Huang da et al., 2009). There was no significant enrichment of Gene Ontology database terms as defined by a Benjamini-corrected p-value of <0.01.
The gene expression signature common to both cell lines and both compounds at Day 8 (677 genes in total) was subjected to analysis for enrichment of seed-matched gene targets and for functional gene annotation.
The activity of antimiR-155 compound 4 (SEQ ID NO: 25) was further investigated by treating the third mycosis fungoides cell line, MyLa, with compound 4 (SEQ ID NO: 25) for 4 days and 8 days and profiling the changes in gene expression. To test the specificity of compound 4 (SEQ ID NO: 25), cells of the Sézary syndrome cell line (HuT78) were treated with compound 4 (SEQ ID NO: 25) for 8 days and the changes in gene expression were profiled. Genes that are statistically changed with a false discovery rate (FDR) corrected p-value of <0.05 in response to compound 4 (SEQ ID NO: 25) in three mycosis fungoides cell lines, HuT102, MJ, and My-La, are depicted in the heat map as described above. The total number of genes in the heat map is 324. […]

The test system of data set [7] is HuT102 cells. Nature of the data set: Proliferation of HuT102 cells (cell number by ATP level). The settings on record: for proliferation (cell number by ATP): over time. The procedure:
as §1, §2

The subject of data set [8] is miR-155. Nature of the data set: Dual luciferase reporter assay with miR-155 binding site in HeLa cells. The settings on record: 10 nM miR-155 mimic, 2 nM oligonucleotide. From the text: To assess the activity of a miR-155 inhibitor, a dual luciferase reporter assay system was used. In brief, the binding site for miR-155 was cloned into the 3′ UTR of the Renilla luciferase gene located within the commercially-available psiCHECK-2 vector system (Promega). In the absence of a miR-155 inhibitor, the expression of Renilla luciferase protein is repressed by a miR-155 mimic. In the presence of a miR-155 inhibitor, the expression of Renilla luciferase protein is de-repressed. […] Expression of either Renilla or firefly luciferase is measured through detection of light emitted by the luciferase protein.
50 ng of the dual luciferase reporter plasmid containing the miR-155 binding site was transfected into HeLa cells without a miR-155 mimic (“Reporter” only), with 10 nM miR-155 mimic (“Reporter+mimic”), with 10 nM miR-155 mimic and 2 nM of the control oligonucleotide, or with 10 nM miR-155 mimic and 2 nM of a test miR-155 oligonucleotide inhibitor of 11-14 nucleotide lengths (Table 4). The miR-155 mimic was purchased from Dharmacon (miRIDIAN microRNA Human hsa-miR-155-5p mimic; Accession number MIMAT0000646; catalog # C-300647-05-0005) and contains the mature miRNA sequence: -[…]- (SEQ ID NO: 121). The control oligonucleotide used in the experiment had the following sequence: 5′-lCs.dTs.dAs.lGs.dAs.lAs.dAs.lGslAs.dGs.lTs.dAs.lGs.lA-3′ (SEQ ID NO: 122).

Entries after “also recorded” stand apart in the source; their conditions may differ. l = locked nucleic acid (LNA); d = 2'-deoxy (DNA)

As to “5′-lCs.dAs.lCs.dGs.dAs.lTs.lTs.dAs.lGs.dCs.lAs.lTs.lTs.lA-3′ (CACGATTAGCATTA; sugars from the 5' end ldlddlldldllll, all phosphorothioate, methylation of C not given here) [compound 4]”, the “caspase 3/7 activity” value in data set [1] (day 8 of treatment) is given as “confirm the inhibitory potential”. For the same substance, the “apoptosis (caspase 3/7 activity normalized to ATP)” value in data set [1] is reported as “greater apoptotic activity”; in data set [1] (listed as Compound 4), “greater induction of apoptosis than bexarotene”. Further, the target de-repression entry in data set [2] was “greater target de-repression than antimiR-155 compound 3 (SEQ ID NO: 23)”. In data set [2], the “gene expression signature of four direct targets of miR-155-5p vs untreated cells” value is “statistically significantly different from that of untreated cells”. Besides, the “antimiR activity by four-gene signature (Bach1, Jarid2, Picalm, Ship1)” value in data set [2] was “more active than compounds 1 (SEQ ID NO: 27) and 3 (SEQ ID NO: 23)”. Further, the “apoptosis (caspase 3/7 activity)” value in data set [3] is recorded as “increased apoptosis compared to each treatment alone”. Also, the “activation of caspase 3/7” value in data set [4] is “greater apoptotic activity; also recorded: greater activity compared to compound 3 (SEQ ID NO: 23)”. Also, the “proliferation (ATP)” value in data set [5] (dose titration, eight days of treatment) is listed as “further confirm the inhibitory potential”; in data set [5] (over time), “greater inhibition of proliferation; also recorded: greater activity compared to compound 3 (SEQ ID NO: 23)”; in data set [7] (day 8 of treatment) it was “confirm the inhibitory potential”. Further, the “number of genes up- or down-regulated in all three mycosis fungoides cell lines (Table 2)” value in data set [6] (HuT102, MJ, MyLa, Day 4 or Day 8) came out at 587. Also, the “magnitude of gene regulation (whole genome heat map)” value in data set [6] (MJ and HuT102 cells, 4 days and 8 days) is “greater magnitude of gene regulation in both cell lines and at both time points”. The “change in gene expression” value in data set [6] (Sézary syndrome cell line HuT78, 8 days) is listed as “did not show much change in the gene expression”. For the same substance, in data set [7], the “proliferation (cell number by ATP)” value is “greater inhibition of proliferation; also recorded: comparable to that seen with bexarotene”.
Consider “5′-lCs.dGs.lAs.lTs.lTs.dAs.lGs.dCs.lAs.lTs.lTs.lA-3′ (CGATTAGCATTA; sugars from the 5' end ldllldldllll, all phosphorothioate, methylation of C not given here) [compound 3]”, for which, in data set [2], the “gene expression signature of four direct targets of miR-155-5p vs untreated cells” value is given as “statistically significantly different from that of untreated cells”.
As for “5′-lCs.dGs.lAs.lTs.lTs.lAs.lGs.dCs.lAs.lTs.lTs.lA-3′ (CGATTAGCATTA; sugars from the 5' end l1 d1 l5 d1 l4, all phosphorothioate, methylation of C not given here) [compound 2]”, in data set [1], the “apoptosis (caspase 3/7 activity normalized to ATP)” value is recorded as “greater apoptotic activity”. Moreover, in data set [2], the target de-repression entry is listed as “greater target de-repression than antimiR-155 compound 3 (SEQ ID NO: 23)”; the “antimiR activity by four-gene signature (Bach1, Jarid2, Picalm, Ship1)” value was “more active than compounds 1 (SEQ ID NO: 27) and 3 (SEQ ID NO: 23)”. In addition, the “activation of caspase 3/7” value in data set [4] was “greater apoptotic activity”. Besides, the “proliferation (ATP)” value in data set [5] (over time) was “greater inhibition of proliferation”. For the same substance, the “proliferation (cell number by ATP)” value in data set [7] is listed as “greater inhibition of proliferation”.
Take “5′-lCs.dTs.dAs.lGs.dAs.lAs.dAs.lGslAs.dGs.lTs.dAs.lGs.lA-3′ (CTAGAAAGAGTAGA; sugars from the 5' end lddldldlldldll, all phosphorothioate, methylation of C not given here) [control oligonucleotide, control oligonucleotide used in the dual luciferase reporter experiment]”: in data set [8], the “de-repression of Renilla luciferase expression” value is listed as “did not de-repress the expression of luciferase”.
